From patent publication US20240325398A1, “COMBINATION THERAPIES” (Infinity Pharmaceuticals, Inc., priority 2014, published 2024)

Assays:
[1] = test system: HH; assay: Combination study, ATPLite 72 h, dose matrix (Synergy Score, CI50); type: cell-based; details: combination with Compound 1
Procedure: The method is described as follows.
Additive effect is CI=1.0. […] Antagonistic effect is CI>1.0.
The Synergy Score is calculated as: […]

[2] = test system: HBL-1; assay: as above; details: combination with Compound 1, 72 h
[3] = test system: OCI-Ly3; assay: as above; details: combination with Compound 1; OCI-Ly3; 72 h
[4] = test system: U-2932; assay: as above; details: combination with Compound 1, 72 h
Procedure: (§1) Cells are thawed from a liquid nitrogen preserved state. Once cells have been expanded and divide at their expected doubling times, screening begins. Cells are seeded in growth media in either black 1536-well or 384-well tissue culture treated plates. Cells are then equilibrated in assay plates via centrifugation and placed in incubators attached to the Dosing Modules at 37° C. for 24 hours before treatment. […] These Tzero (To) plates are read using ultra-sensitive luminescence on Envision plate readers (Perkin Elmer). Treated assay plates are incubated with compound for 72 hours. After 72 hours, plates are developed for endpoint analysis using ATPLite. All data points are collected via automated processes, quality controlled and analyzed using Zalicus software.
(§2) where T is treated cell count and V is untreated (vehicle) cell count (at 72 hours). I ranges from 0% (when T=V) to 100% (when T=0). […] The measure of effect in the experiment can be the inhibition of cellular response relative to the untreated level (vehicle alone). […] The inhibition ranges from 0% at the untreated level to 100% when T=0. Inhibition levels are negative for agents that actually increase levels. Other effect measures, such as an activity ratio r=T/V may be more appropriate for some assays. When activity ratios (e.g, fold increase over stimulated control) are being used, the effect can be measured using an induction 1=ln(T/V). With this definition, all effect expressions are the same as for inhibition.
(§3) Growth Inhibition (GI) is used as a measure of cell viability. […] A GI reading of 100% represents complete growth inhibition—T72 compound-treated and T0 vehicle signals are matched. […] A GI reading of 200% represents complete death of all cells in the culture well. Compounds reaching an activity plateau of GI 200% are considered cytotoxic. GI is calculated by applying the following test and equation:
(§4) Combination analysis data were collected in a 6×6 dose matrix. Synergy is calculated by comparing a combination's response to those of its single compound, against the drug-with-itself dose-additive reference model. Deviations from dose additivity may be assessed visually on an isobologram or numerically with a Combination Index (CI). […] Additive effect is CI=1.0. […] Antagonistic effect is CI>1.0.
(§5) To measure combination effects in excess of Loewe additivity, a scalar measure to characterize the strength of synergistic interaction termed the Synergy Score is devised. The Synergy Score is calculated as:
(§6) The fractional inhibition for each component agent and combination point in the matrix is calculated relative to the median of all vehicle-treated control wells. The Synergy Score equation integrates the experimentally-observed activity volume at each point in the matrix in excess of a model surface numerically derived from the activity of the component agents using the Loewe model for additivity. Additional terms in the Synergy Score equation (above) are used to normalize for various dilution factors used for individual agents and to allow for comparison of synergy scores across an entire experiment. The inclusion of positive inhibition gating or an Idata multiplier removes noise near the zero effect level, and biases results for synergistic interactions at that occur at high activity levels.
(§7) Loewe Volume (Loewe Vol) is used to assess the overall magnitude of the combination interaction in excess of the Loewe additivity model. Loewe Volume is particularly useful when distinguishing synergistic increases in a phenotypic activity (positive Loewe Volume) versus synergistic antagonisms (negative Loewe Volume). […] This model defines additivity as a non-synergistic combination interaction where the combination dose matrix surface should be indistinguishable from either drug crossed with itself. The calculation for Loewe additivity is:

[5] = test system: TMD8; assay: as above; details: combination with Compound 1; TMD8; 72 h
[6] = test system: OCI-Ly7; assay: as above; details: combination with Compound 1, 72 h
[7] = test system: SU-DHL-4-epst; assay: as above; details: combination with Compound 1, 72 h
Procedure: as §1
(§8) The measure of effect in the experiment can be the inhibition of cellular response relative to the untreated level (vehicle alone). […] The inhibition ranges from 0% at the untreated level to 100% when T=0. Inhibition levels are negative for agents that actually increase levels.
as §3, §4, §5, §6, §7

[8] = test system: DOHH-2; assay: as above; details: combination with Compound 1, 72 h
Procedure: as §1, §8, §3, §4, §5, §6, §7

[9] = test system: Farage; assay: as above; details: combination with Compound 1; Farage; 72 h
[10] = test system: SU-DHL-10-epst; assay: as above; details: combination with Compound 1, 72 h
[11] = test system: RL; assay: as above; details: combination with Compound 1, 72 h
[12] = test system: KARPAS-422; assay: as above; details: combination with Compound 1, 72 h
[13] = test system: WSU-NHL; assay: as above; details: combination with Compound 1, 72 h
[14] = test system: KARPAS-299; assay: as above; details: combination with Compound 1
[15] = test system: GRANTA-519; assay: as above; details: combination with Compound 1
[16] = test system: Jeko-1; assay: as above; details: combination with Compound 1
Procedure: as §1, §2, §3, §4, §5, §6
Loewe Volume (Loewe Vol) is used to assess the overall magnitude of the combination interaction in excess of the Loewe additivity model. Loewe Volume is particularly useful when distinguishing synergistic increases in a phenotypic activity (positive Loewe Volume) versus synergistic antagonisms (negative Loewe Volume). […] This model defines additivity as a non-synergistic combination interaction where the combination dose matrix surface should be indistinguishable from either drug crossed with itself.

[17] = test system: Mino; assay: as above; details: combination with Compound 1
[18] = test system: NCI-H929; assay: as above; details: combination with Compound 1
[19] = as above; details: combination with Compound 1; OPM-2
[20] = test system: OMP-2; assay: as above; details: combination with Compound 1; OPM-2
[21] = test system: RPMI-8226; assay: as above; details: combination with Compound 1

SMILES: COc1ccc(-c2ccc3c(N4CCOC[C@@H]4C)nc(N4CCOC[C@@H]4C)nc3n2)cc1CO [AZD 8055]
- CI50 growth inhibition [1]: S (S=0.01 to <0.5)
- CI50 inhibition [1]: S (S=0.01 to <0.5)
- Synergy Score growth inhibition [1]: A3 (A3=>3)
- Synergy Score inhibition [1]: A2 (A2=1 to <3)
- CI50 growth inhibition [2]: S (S=0.01 to <0.5)
- CI50 inhibition [2]: T (T=0.5 to <0.7)
- Synergy Score growth inhibition [2]: A3 (A3=>3)
- Synergy Score inhibition [2]: A1 (A1=0.0001 to <1)
- CI50 growth inhibition [3]: S (S=0.01 to <0.5)
- CI50 inhibition [3]: T (T=0.5 to <0.7)
- Synergy Score growth inhibition [3]: A2 (A2=1 to <3)
- Synergy Score inhibition [3]: A1 (A1=0.0001 to <1)
- CI50 growth inhibition [4]: S (S=0.01 to <0.5)
- CI50 inhibition [4]: U (U=0.7 to <1)
- Synergy Score growth inhibition [4]: A2 (A2=1 to <3)
- Synergy Score inhibition [4]: A2 (A2=1 to <3)
- CI50 growth inhibition [5]: S (S=0.01 to <0.5)
- CI50 inhibition [5]: S (S=0.01 to <0.5)
- Synergy Score growth inhibition [5]: A3 (A3=>3)
- Synergy Score inhibition [5]: A3 (A3=>3)
- CI50 growth inhibition [6]: S (S=0.01 to <0.5)
- CI50 inhibition [6]: T (T=0.5 to <0.7)
- Synergy Score growth inhibition [6]: A3 (A3=>3)
- Synergy Score inhibition [6]: A2 (A2=1 to <3)
- CI50 growth inhibition [7]: T (T=0.5 to <0.7)
- CI50 inhibition [7]: S (S=0.01 to <0.5)
- Synergy Score growth inhibition [7]: A3 (A3=>3)
- Synergy Score inhibition [7]: A3 (A3=>3)
- CI50 growth inhibition [8]: S (S=0.01 to <0.5)
- CI50 inhibition [8]: S (S=0.01 to <0.5)
- Synergy Score growth inhibition [8]: A3 (A3=>3)
- Synergy Score inhibition [8]: A3 (A3=>3)
- CI50 growth inhibition [9]: S (S=0.01 to <0.5)
- CI50 inhibition [9]: S (S=0.01 to <0.5)
- Synergy Score growth inhibition [9]: A3 (A3=>3)
- Synergy Score inhibition [9]: A3 (A3=>3)
- CI50 growth inhibition [10]: S (S=0.01 to <0.5)
- CI50 inhibition [10]: S (S=0.01 to <0.5)
- Synergy Score growth inhibition [10]: A3 (A3=>3)
- Synergy Score inhibition [10]: A3 (A3=>3)
- CI50 growth inhibition [11]: U (U=0.7 to <1)
- CI50 inhibition [11]: U (U=0.7 to <1)
- Synergy Score growth inhibition [11]: A2 (A2=1 to <3)
- Synergy Score inhibition [11]: A2 (A2=1 to <3)
- CI50 growth inhibition [12]: S (S=0.01 to <0.5)
- CI50 inhibition [12]: S (S=0.01 to <0.5)
- Synergy Score growth inhibition [12]: A2 (A2=1 to <3)
- Synergy Score inhibition [12]: A2 (A2=1 to <3)
- CI50 growth inhibition [13]: T (T=0.5 to <0.7)
- CI50 inhibition [13]: S (S=0.01 to <0.5)
- Synergy Score growth inhibition [13]: A3 (A3=>3)
- Synergy Score inhibition [13]: A3 (A3=>3)
- CI50 growth inhibition [14]: W (W=≥1)
- CI50 inhibition [14]: U (U=0.7 to <1)
- Synergy Score growth inhibition [14]: A1 (A1=0.0001 to <1)
- Synergy Score inhibition [14]: A1 (A1=0.0001 to <1)
- CI50 growth inhibition [15]: T (T=0.5 to <0.7)
- CI50 inhibition [15]: U (U=0.7 to <1)
- Synergy Score growth inhibition [15]: A2 (A2=1 to <3)
- Synergy Score inhibition [15]: A1 (A1=0.0001 to <1)
- CI50 growth inhibition [16]: S (S=0.01 to <0.5)
- CI50 inhibition [16]: T (T=0.5 to <0.7)
- Synergy Score growth inhibition [16]: A3 (A3=>3)
- Synergy Score inhibition [16]: A2 (A2=1 to <3)
- CI50 growth inhibition [17]: U (U=0.7 to <1)
- CI50 inhibition [17]: S (S=0.01 to <0.5)
- Synergy Score growth inhibition [17]: A2 (A2=1 to <3)
- Synergy Score inhibition [17]: A1 (A1=0.0001 to <1)
- CI50 growth inhibition [18]: W (W=≥1)
- CI50 inhibition [18]: T (T=0.5 to <0.7)
- Synergy Score growth inhibition [18]: A3 (A3=>3)
- Synergy Score inhibition [18]: A2 (A2=1 to <3)
- CI50 growth inhibition [19]: U (U=0.7 to <1)
- CI50 inhibition [20]: W (W=≥1)
- Synergy Score growth inhibition [20]: A2 (A2=1 to <3)
- Synergy Score inhibition [20]: A1 (A1=0.0001 to <1)
- CI50 growth inhibition [21]: U (U=0.7 to <1)
- CI50 inhibition [21]: W (W=≥1)
- Synergy Score growth inhibition [21]: A2 (A2=1 to <3)
- Synergy Score inhibition [21]: A1 (A1=0.0001 to <1)

SMILES: Nc1ncn([C@@H]2O[C@H](CO)[C@@H](O)[C@H]2O)c(=O)n1 [Azacitidine]
- CI50 growth inhibition [1]: S (S=0.01 to <0.5)
- CI50 inhibition [1]: S (S=0.01 to <0.5)
- CI50 growth inhibition [2]: S (S=0.01 to <0.5)
- CI50 inhibition [2]: W (W=≥1)
- CI50 growth inhibition [3]: S (S=0.01 to <0.5)
- CI50 growth inhibition [4]: S (S=0.01 to <0.5)
- CI50 inhibition [4]: W (W=≥1)
- CI50 growth inhibition [5]: U (U=0.7 to <1)
- CI50 inhibition [5]: U (U=0.7 to <1)
- CI50 growth inhibition [6]: T (T=0.5 to <0.7)
- CI50 inhibition [6]: T (T=0.5 to <0.7)
- CI50 growth inhibition [7]: S (S=0.01 to <0.5)
- CI50 inhibition [7]: S (S=0.01 to <0.5)
- CI50 growth inhibition [8]: U (U=0.7 to <1)
- CI50 inhibition [8]: U (U=0.7 to <1)
- CI50 growth inhibition [9]: S (S=0.01 to <0.5)
- CI50 inhibition [9]: S (S=0.01 to <0.5)
- CI50 growth inhibition [10]: S (S=0.01 to <0.5)
- CI50 inhibition [10]: S (S=0.01 to <0.5)
- CI50 growth inhibition [11]: T (T=0.5 to <0.7)
- CI50 inhibition [11]: U (U=0.7 to <1)
- CI50 growth inhibition [12]: T (T=0.5 to <0.7)
- CI50 inhibition [12]: U (U=0.7 to <1)
- CI50 growth inhibition [13]: T (T=0.5 to <0.7)
- CI50 inhibition [13]: S (S=0.01 to <0.5)
- CI50 growth inhibition [14]: W (W=≥1)
- CI50 inhibition [14]: W (W=≥1)
- CI50 growth inhibition [15]: U (U=0.7 to <1)
- CI50 growth inhibition [16]: S (S=0.01 to <0.5)
- CI50 inhibition [16]: T (T=0.5 to <0.7)
- CI50 growth inhibition [17]: S (S=0.01 to <0.5)
- CI50 inhibition [17]: S (S=0.01 to <0.5)
- CI50 growth inhibition [18]: U (U=0.7 to <1)
- CI50 inhibition [18]: U (U=0.7 to <1)
- CI50 growth inhibition [19]: S (S=0.01 to <0.5)
- CI50 inhibition [20]: W (W=≥1)
- CI50 growth inhibition [21]: T (T=0.5 to <0.7)
- CI50 inhibition [21]: W (W=≥1)
